Test results reported in patent publication US20240366784A1, “INJECTABLE HYDROGEL COMPOSITIONS AND METHODS OF USE THEREOF” (Drexel University, priority 2023, published 2024).

Experiments:
[1] = typically reported; cited from earlier work
RAW264.7 cells = experiment: qPCR transcriptional analysis of zymosan-activated RAW264.7 macrophages; assay type: cell-based, murine; conditions: zymosan 100 μg/mL, drug 1 μM, 24 hrs
Experimental: For secondary identification of M2-promoting drugs, transcriptional analysis using qPCR was performed. RAW264.7 cells were plated at 1×10^6 cells/well in 24 well plates. After 24 h, media was replaced, and IL-4 (10 ng/mL, PeproTech) or zymosan (100 μg/mL) were included to serve as internal controls for M2-like and M1-like phenotypes, respectively. Treatment groups were concurrently activated via zymosan and treated with 1 μM drug concentrations, n=3 per group. After 24 hrs, cells were lysed by freezing, RNA was extracted (RNEasy Mini Kit; Qiagen), and cDNA synthesis was performed (High-Capacity cDNA Reverse Transcription Kit; Fisher). Samples were subject to qPCR using Taqman Fast Advanced Master Mix and probes (Fisher) for analysis of hprt (Mm01545399_m1), nos2 (Mm00440502_m1), il12b (Mm01288989_m1), il6 (Mm00446190_m1), mrc1 (Mm00485148_m1), il10 (Mm01288386_m1), and arg1 (Mm00475988_m1). Data is expressed as a fold change in gene expression using the ΔΔCt method, relative to the hprt and zymosan-treated controls.

[2] = test system: Bone marrow derived macrophages (BMDMs); experiment: nanoString gene expression analysis in zymosan-activated bone marrow derived macrophages; assay type: cell-based, mouse; conditions: zymosan 100 μg/mL, drug 1 μM, 24 hrs, 91-gene panel
Experimental: Cells were maintained under standard culture conditions (37° C., 5% CO2) in the indicated medium which was replenished every two days. The murine MF cell lines, RAW 264.7 (ATCC) and RAW-Blue™ (InvivoGen), were cultured in Dulbecco's Modified Eagle Medium (DMEM) supplemented with heat-inactivated fetal bovine serum (FBS), and 1% penicillin-streptomycin (Pen-Strep). RAW-Blue™ media was additionally supplemented by 100 μg/ml Normocin with the addition of 100 μg/ml of Zeocin every other passage to maintain selection pressure, as recommended by the manufacturer. Cells were passaged at 70% confluency. Primary MF were derived from murine and human tissues. Bone marrow derived macrophages (BMDMs) were isolated and derived according to standard protocols. Marrow was extracted from the surgically resected femur and tibia of male C57BL/6 mice, dissociated, and filtered using a 40 μm strainer. Red blood cells were lysed with ammonium chloride, and recovered cells were plated at 2×10^6 cells/well in 24 well plates and maintained in Iscove's Modification of DMEM (IMDM) supplemented with 10% heat-inactivated FBS, 1% Pen-Strep, and 10 ng/mL recombinant mouse macrophage colony-stimulating factor (M-CSF; PeproTech). Primary human monocytes were isolated from peripheral blood (New York Blood Center) from a single healthy human donor via density centrifugation as previously described in the literature. […]

COc1cccc2c1C(=O)c1c(O)c3c(c(O)c1C2=O)C[C@@](O)(C(=O)CO)C[C@@H]3O[C@H]1C[C@H](N)[C@H](O)[C@H](C)O1 [doxorubicin]
Keq of polyaromatic guests with CD [1]: single micromolar

N[C@@H](Cc1c[nH]c2ccccc12)C(=O)O [tryptophan]
Keq of polyaromatic guests with CD [1]: single micromolar

COc1ccc(C(=O)Nc2c(Cl)cncc2Cl)cc1OC1CCCC1 [piclamilast]
change in il12b expression among six selected drugs (RAW264.7 cells): greatest decrease
change in mrc1 and il10 expression among six selected drugs (RAW264.7 cells): greatest increase
expression of M1-like genes (nos2, il6, il12b) (RAW264.7 cells; qPCR): significantly downregulated
expression of M2-like genes (mrc1, arg1, il10) (RAW264.7 cells; qPCR): upregulation
cluster analysis of macrophage phenotype [2]: intermediate to M1 and M2 control phenotypes
